Patent US8242160B2, “Inhibitors of ubiquitin E1” (The United States of America, as represented by the …, priority 2005, dated 2012)
Like-named read-outs stand apart in the source and are kept apart here.

Experiments:
[1] = tested on: Mdm2; test: Cellular Mdm2 level by immunoblotting; format: cell-based; details: six hours treatment; RPE cells
Text: (§1) FIG. 5A depicts the increase in the levels of Mdm2 and p53 in RPE cells after treatment with the E1 inhibitor 4-[4-(5-nitro-furan-2-ylmethylene)-3,5-dioxo-pyrazolidin-1-yl]-benzoic acid methyl acid.

[2] = tested on: p53; test: Cellular p53 level by immunoblotting; format: cell-based; details: six hours treatment; RPE cells
Text: as §1

[3] = tested on: IκBα; test: TNFα-induced IκBα phosphorylation in cells; format: cell-based; details: 1 minute stimulation
[4] = tested on: TRAF6; test: TNFα-induced TRAF6 ubiquitination, immunoprecipitation and immunoblotting; format: cell-based; details: T cell leukemia Jurkat
Text: To determine whether 4-[4-(5-nitro-furan-2-ylmethylene)-3,5-dioxo-pyrazolidin-1-yl]-benzoic acid methyl acid blocks ubiquitination of TRAF6 in response to TNFα, TRAF6 was immunoprecipitated from the T cell leukemia Jurkat after TNFα treatment, followed by immunoblotting (FIG. 4C).

[5] = target: T1, GST-UbcH5B (Homo sapiens, UniProt P62837); test: E1+E2 assay: formation of E2-ubiquitin complex; format: biochemical; details: E1 preloaded with 32P-labeled ubiquitin, then E2 added with compound
T1 construct: made in house; host or cells: bacteria
Procedure: One way that the compounds might inactivate E1 is by alkylating or otherwise irreversibly inactivating active site cysteines. Like E1, E2 also uses a cysteine to form thiolester bond with ubiquitin. Inhibitors that directly act on the cysteine of E1 might therefore also affect E2 activity, and thus function in a relatively non-specific manner. […]
c. E1+E2 Assay with Immobilized E2 • 20 pmoles of bacterially-expressed GST-UbcH5B are bound to GS beads for 30 minutes at room temperature. […] This is followed by resolution by SDS-PAGE under non-reducing conditions and exposure as above.

[6] = tested on: Nedd4; test: In vitro autoubiquitination of HECT E3 Nedd4; format: biochemical
Procedure: It was then evaluated whether 4-[4-(5-nitro-furan-2-ylmethylene)-3,5-dioxo-pyrazolidin-1-yl]-benzoic acid methyl acid blocks autoubiquitination of both RING finger E3s (Mdm2) and HECT E3s (Nedd4) in vitro.
5 pmole per experimental point of bacterially expressed GST-Mdm2 (or GST-Nedd) is coupled to glutathione Sepharose (GS) for 30 minutes at room temperature with tumbling, followed by 3× wash with 50 mM Tris pH 7.5. Following this, 20 μl of 1× buffer is added (40 μl 10× reaction buffer*, 40 μl 10× PCK**, 320 μl dH2O). The test compound in DMSO is then added to the desired concentration with an equal volume of DMSO used as a control. Samples are incubated with shaking for 1 hr at 23° C. To carry out the reaction, a pre-made cocktail of Rabbit E1 (Calbiochem #6620700)/UbCH5B/^32P Ub cocktail (1 μl/0.5 μl/1 μl) is added followed by 15 minutes shaking at 30° C. The reaction is terminated by addition of 8 μl 4× reducing SDS-PAGE loading buffer. After dissociating proteins from the beads at 100° C. for 2 minutes, samples are resolved on 6% PAGE followed by exposure of the dried gel to phosphor screen. Note: ^32P Ub is derived from GST-Ub that has been engineered to include a PKA phosphorylation site. This fusion protein is purified on glutathione Sepharose, phosphorylated, following this, the ^32P Ub ubiquitin is cleaved and purified away from the thrombin.

[7] = tested on: MEFs (mouse embryonic fibroblasts) that express wild type p53; test: Killing of MEFs that express wild type p53; format: cell-based
Text: While p53 induces apoptotic cell death in many tumor cells, it generally only induces growth arrest in untransformed cells. This has been the rationale for many studies targeting the p53 system.

[8] = tested on: cyclin E; test: Degradation of in vitro translated cyclin E in S-100 cytosolic extract; format: biochemical
Text: Cytosolic extracts from cells (S-100) contain all the components for ubiquitination and proteasomal degradation. To further evaluate 4-[4-(5-nitro-furan-2-ylmethylene)-3,5-dioxo-pyrazolidin-1-yl]-benzoic acid methyl acid, we made use of in vitro translated cyclin E, which is degraded in S-100 in a time-dependent manner (FIG. 3, upper panel, lanes 1-4).

[9] = tested on: NFκB; test: NFκB response element-driven luciferase reporter, IL-1 induced; format: cell-based, human; details: HeLa cells, 50 μM for 10 minutes, then IL-1 0-1.0 ng/ml for 2 hours
Procedure: HeLa cells (human epithelial cells) were transfected with a NFκB response element-driven luciferase reporter. The cells were treated with E1 41 (50 μM) for 10 minutes, or dimethyl sulfoxide (DMSO) control. Interleukin 1 (IL-1) was added to the cells for 2 hours. IL-1 was added at concentrations ranging from 0-1.0 ng/ml to induce activation of NFκB. An assay for luciferase activity was carried out according to the methods as described in the commercially available PROMEGA system for luciferase detection.

[10] = tested on: GST-Mdm2; test: Standard Mdm2 in vitro ubiquitination assay (E1+E2+E3), gel-based with 32P-labeled ubiquitin; format: biochemical
Text: The ability of a compound to inhibit E1 activity may also be examined by determining the ability of the compound to inhibit Mdm2 autoubiquitination, which is dependent on E1, as well as E2. For in vitro assays Mdm2 can be expressed as a GST fusion. This allows for a high level of expression of protein that can be purified on glutathione Sepharose. Detection of ubiquitination of Mdm2 can be accomplished, for example, using ^32P-labeled ubiquitin, Western blotting with anti-ubiquitin, or by looking at a shift in the molecular weight of GST fusion by Western blotting with anti-GST. A variety of in vitro assays that measure levels of self-ubiquitinated Mdm2 can be employed, such as for example, immunoprecipitation of ubiquitinated Mdm2; gel assays wherein the amount of ubiquitinated Mdm2 is measured by densitometric scanning or where covalent attachment of radio-labeled or otherwise tagged ubiquitin to Mdm2 or p53 is measured; Western blot analysis, or other known techniques such as ELISA, immunoprecipitation, RIA, and the like. […]

T1 sequence (P62837 whole entry): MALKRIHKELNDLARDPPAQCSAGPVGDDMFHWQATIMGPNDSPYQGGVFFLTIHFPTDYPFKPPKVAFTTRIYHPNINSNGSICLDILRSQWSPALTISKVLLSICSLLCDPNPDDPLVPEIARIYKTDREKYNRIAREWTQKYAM

For `COC(=O)c1ccc(N2NC(=O)/C(=C/c3ccc([N+](=O)[O-])o3)C2=O)cc1` [E1-41, 4-[4-(5-nitro-furan-2-ylmethylene)-3,5-dioxo-pyrazolidin-1-yl]-benzoic acid methyl acid], the “cellular Mdm2 level” value [1] was “increased”, the “cellular p53 level” value [2] was “increased” and the “IκBα phosphorylation following TNFα treatment” value [3] was “blocks IκBα phosphorylation”. For the same compound, the “TNFα-induced ubiquitination of TRAF6” value [4] was “effectively inhibited”, the “transfer of ubiquitin from E1 to E2 (formation of E2-ubiquitin complex)” value [5] was “did not affect transfer of ubiquitin from E1 to E2” and the “autoubiquitination of Nedd4” value [6] was “inhibits the autoubiquitination of Nedd4”. For the same compound, the “killing of MEFs expressing wild type p53” value [7] was “only kills MEFs”, the “cyclin E degradation in S-100” value ([8]; no exogenous E1) was “block cyclin E degradation” and the “cyclin E degradation in S-100 after addition of purified exogenous E1” value ([8]; purified exogenous E1 added to the reaction mixture) was “inhibition of cyclin E degradation was prevented”. For the same compound, the “IL-1 induced NFκB luciferase reporter activity” value [9] was “reduction of luciferase activity”, the “Mdm2 autoubiquitination in vitro (high molecular weight species)” value [10] was “prevent generation of high molecular weight species promoted by Mdm2 in a dose-dependent manner” and the “Mdm2 autoubiquitination in vitro (high molecular weight species)” value ([10]; listed as compound 41) was “inhibits autoubiquitination of Mdm2 in vitro”.
